The values that follow come from patent US5965539A, “Inhibitors of prenyl transferases” (Univeristy of Pittsburgh, priority 1996, dated 1999).

Experiment [1] deals with T1, FTase (Homo sapiens, UniProt P49356).
T1 construct: FTase and GGTase I activities from 60,000×g supernatants of human Burkitt lymphoma (Daudi) cells; endogenous in cells; host or cells: human Burkitt lymphoma (Daudi) cells, 60,000xg supernatant (partially purified)
Put plainly: Peptidomimetics farnesylation assay (silica gel TLC). Type of experiment: biochemical. Here is the method:
The ability of human Burkitt lymphoma (Daudi) FTase to farnesylate peptides and peptidomimetics was determined as described previously (34, 35). Briefly, 25 μl of reaction mixture containing 50 μg of 60,000×g supernatants and 20 μM peptidomimetic in 50 mM Tris, pH 7.5, 50 μM ZnCl2, 20 mM KCl, 3 mM MgCl2, 1 mM DTT and 0.2% octylβ-D-glucoside was incubated for 30 minutes at 37° C., then spotted onto silica gel G TLC sheets (20×20 cm, Brinkmann Instruments), and developed with n-propanol/5 N ammonium hydroxide/water (6:1:1). The dried sheets were sprayed with En^3 Hance (DuPont NEN) and exposed to x-ray film for detection of [^3 H] farnesylated products.

The target in another experiment is T2, GGTase I (Homo sapiens, UniProt P53609).
T2 construct: FTase and GGTase I activities from 60,000×g supernatants of human Burkitt lymphoma (Daudi) cells; endogenous in cells; host or cells: human Burkitt lymphoma (Daudi) cells, 60,000xg supernatant (partially purified)
The experiment is described as follows: GGTase I activity assay: transfer of [3H]geranylgeranyl to recombinant H-Ras-CVLL, Daudi 60,000xg supernatant. Type of experiment: biochemical.

Another experiment concerns Ras processing. The experiment is described as follows: Ras processing assay in EJ3 / Ras transformed 3T3 cells (FIG. 16A). The class given is cell-based. Here is the method:
EJ3 cells were treated with peptidomimetics or vehicle for 20-24 h. Cells were lysed in lysis buffer (10 mM Na2 HPO4, pH 7.25, 150 mM NaCl, 0.1% sodium dodecyl sulfate, 1% Triton X-100, 12 mM sodium deoxycholate, 1 mM NaF, 0.2% NaN3, 2 mM PMSF, 25 μg/ml leupeptin) and the lysates were cleared by spinning at 13,000 rpm for 15 minutes. Ras protein was immunoprecipitated overnight at 4° C. with 50 μg of anti-Ras antibody (Y13-259; hybridoma from ATCC, Rockville, Md.) along with 30 μl Protein A-agarose goat anti-rat IgG complex (oncogene Science, Uniondale, N.Y.). Immunoprecipitates were washed 4 times with lysis buffer and the bound proteins were released by heating for 5 minutes in 40 μl SDS-PAGE sample buffer and subsequently electrophoresed on a 12.5% SDS-PAGE.

The next experiment has as its system Rap1A processing. The experiment is described as follows: Rap1A processing assay in EJ3 / Ras transformed 3T3 cells (FIG. 16B). Type of experiment: cell-based. Here is the method:
For Rap1A processing assays, 50 μg of cell lysates were electrophoresed as described above for Ras processing and transferred to nitrocellulose. These membranes were then blocked with 5% milk in Tris-buffered saline, pH 8.0, containing 0.5% Tween-20 and probed with anti-Rap1A (1 μg/ml in 5% milk/TBS-T; Santa Cruz Biotechnology, Santa Cruz, Calif.). Antibody reactions were visualized using peroxidase-conjugated goat anti-rabbit IgG (Oncogene) and ECL chemiluminescence as described above.

The target in experiment [2] is T1, FTase. The experiment is described as follows: FTase activity assay: transfer of [3H]farnesyl from FPP to recombinant H-Ras-CVLS, Daudi 60,000xg supernatant. The class given is biochemical. Here is the method: FTase and GGTase I activities from 60,000×g supernatants of human Burkitt lymphoma (Daudi) cells (ATCC, Rockville, Md., USA) were assayed as described previously for FTase (41). Briefly, 100 μg of the supernatant was incubated in 50 mM Tris, pH 7.5, 50 μM ZnCl2, 20 mM KCl and 1 mM dithiothreitol (DTT).
Human Burkitt lymphoma (Daudi) cells (ATCC, Rockville, Md.) were grown in suspension in RPMI 1640 medium containing 10% fetal bovine serum (FBS) and 1% Pen-Strep in a humidified 10% CO2 incubator at 37° C. The cells were harvested and sonicated in 50 mM Tris, pH 7.5, 1 mM EDTA, 1 mM EGTA, 25 μg/ml leupeptin, 1 mM phenylmethylsulfonyl fluoride. Homogenates were then spun at 12,000×g and the resulting supernatant further spun at 60,000×g. The supernatant was assayed for both FTase and GGTase I. Briefly, 100 μg of the supernatants was incubated in 50 mM Tris, pH 7.5, 50 μM ZnCl2, 20 mM KCl, 3 mM MgCl2 and 1 mM DTT. […] FPP (625 nM; 16.3 Ci/mmol). For GGTase assays, the reaction was also incubated for 30 minutes at 37° C. but with recombinant H-Ras-CVLL (5 μM) and [^3 H] GGPP (525 nM; 19.0 Ci/mmol). The reaction was stopped and passed through glass fiber filters to separate free and incorporated label. For inhibition studies, the peptidomimetics were premixed with FTase or GGTase I prior to adding the remainder of the reaction mixture. […] Recombinant H-Ras-CVLL was prepared from bacteria (32).
FTase and GGTase I activities from 60,000×g supernatants of human Burkitt lymphoma (Daudi) cells (ATCC, Rockville, Md.) were assayed exactly as described previously for FTase (41).

The next experiment deals with T3, rat brain FTase (Rattus norvegicus, UniProt Q02293).
T3 construct: 50 nM towards rat brain FTase purified to homogeneity; from tissue; host or cells: rat brain
The experiment is described as follows: Inhibition of rat brain FTase purified to homogeneity. Type of experiment: biochemical.

Experiment [3] has as its target FTase. As to conditions: published; cited from earlier work.

“Also recorded” adds a separate entry of the source. Where two headings read alike, the source gives them in different places.

T1 sequence (P49356 whole entry): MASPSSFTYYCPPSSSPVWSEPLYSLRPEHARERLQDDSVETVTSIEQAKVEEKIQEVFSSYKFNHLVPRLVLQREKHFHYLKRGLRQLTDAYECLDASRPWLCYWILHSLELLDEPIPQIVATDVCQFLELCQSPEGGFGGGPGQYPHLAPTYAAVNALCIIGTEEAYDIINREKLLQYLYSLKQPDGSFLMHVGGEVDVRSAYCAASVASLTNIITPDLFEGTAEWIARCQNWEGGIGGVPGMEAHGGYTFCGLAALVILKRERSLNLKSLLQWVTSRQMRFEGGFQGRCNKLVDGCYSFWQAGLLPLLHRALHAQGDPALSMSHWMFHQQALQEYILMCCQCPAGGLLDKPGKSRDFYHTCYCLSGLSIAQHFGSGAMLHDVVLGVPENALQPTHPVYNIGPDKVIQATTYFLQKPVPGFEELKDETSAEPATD
T2 sequence (P53609 whole entry): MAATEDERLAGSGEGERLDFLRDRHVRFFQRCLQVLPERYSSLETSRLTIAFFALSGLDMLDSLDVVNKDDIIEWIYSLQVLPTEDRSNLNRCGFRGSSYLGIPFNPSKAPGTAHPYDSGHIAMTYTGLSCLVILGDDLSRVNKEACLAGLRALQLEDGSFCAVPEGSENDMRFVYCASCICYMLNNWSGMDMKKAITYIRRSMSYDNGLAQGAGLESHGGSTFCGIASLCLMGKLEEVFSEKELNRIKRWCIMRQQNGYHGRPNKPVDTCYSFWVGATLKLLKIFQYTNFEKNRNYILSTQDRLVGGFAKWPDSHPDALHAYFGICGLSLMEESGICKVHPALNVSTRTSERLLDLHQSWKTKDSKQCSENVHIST

Broadly, the IC50 is the concentration needed to halve the response being measured. As to `N[C@@H](CS)CNc1ccc(-c2cccc(C(=O)O)c2)cc1` [FTI-265, 4-N-[2(R)-amino-3-mercaptopropyl]amino-3'-carboxybiphenyl], the “farnesylation by FTase” value at FTase [1] (FIG. 15, listed as 4) is “prevented farnesylation; also recorded: not substrates for farnesylation”. On FTase [1] (Table 4, substrate for farnesylation, TLC), the Substrate result was “no”. Moreover, the IC50 on GGTase I (Table 4, read-out: GGTase-I IC50) was 100 µM; at GGTase I (read-out: GGTase I IC50), 100 µM; at FTase [2] (Table 4, read-out: FTase IC50) it was 114 nM; on rat brain FTase it was 50 nM. For the same compound, the “lowest concentration that inhibited Ras processing” value in the experiment with Ras processing is 50 µM. In the experiment with Ras processing (100 μM), the “inhibition of Ras processing” value is reported as “potently inhibit Ras processing”. For the same compound, the “inhibition of Rap1A processing” value with Rap1A processing was “not able to inhibit Rap1A geranylgeranylation”. Besides, the “selectivity for FTase over GGTase I” value at FTase [2] worked out at 877 fold. The Selectivity on FTase [2] (Table 4, FTase over GGTase I) was determined as 877.
On to “Cys-Ile-Phe-Met (CIFM; printed: Cys-Ile-Phe-Met)”, for which the 50% inhibitory concentration (IC50) on FTase [3] is 30 nM.
